Patent US11572369B2, “Bicyclic pyridine compositions and methods of using the same for cancer therapy” (UNIVERSITY OF SOUTH CAROLINA, priority 2019, dated 2023)

Columns and labels:
Assay in all cases: KINOMEscan
Format in all cases: binding
Settings in all cases: 2000 nM
RET(M918T) = target: T1, RET(M918T) (Homo sapiens, UniProt P07949, M918T)
T1 construct: purchased DiscoveRx (KINOMEscan scanMAX panel)

DAPK3 = target: T2, DAPK3 (Homo sapiens, UniProt O43293)
T2 construct: DNA label; purchased DiscoveRx (KINOMEscan scanMAX panel)

MAPKAPK2 = MAPKAPK2 (Homo sapiens, UniProt P49137)
PRKX = target: T3, PRKX (Homo sapiens, UniProt P51817)
T3 construct: purchased DiscoveRx (KINOMEscan scanMAX panel)

SYK = target: T4, SYK (Homo sapiens, UniProt P43405)
T4 construct: DNA label (for qPCR read-out); purchased DiscoveRx (KINOMEscan scanMAX panel, contract assay)

HIPK4 = target: T5, HIPK4 (Homo sapiens, UniProt Q8NE63)
T5 construct: DNA label (for qPCR read-out); purchased DiscoveRx (KINOMEscan scanMAX panel, contract assay)

PIK3CD = target: T6, PIK3CD (Homo sapiens, UniProt O00329)
T6 construct: DNA label; purchased DiscoveRx (KINOMEscan scanMAX panel)

FYN = target: T7, FYN (Homo sapiens, UniProt P06241)
T7 construct: purchased KINOMEscan (DiscoveRx)

PRKCQ = target: T8, PRKCQ (Homo sapiens, UniProt Q04759)
T8 construct: purchased DiscoveRx (KINOMEscan scanMAX panel)

HPK1 = target: T9, HPK1 (Homo sapiens, UniProt Q92918)
T9 construct: DNA label (for qPCR read-out); purchased DiscoveRx (KINOMEscan scanMAX panel, contract assay)

PDGFRA = target: T10, PDGFRA (Homo sapiens, UniProt P16234)
T10 construct: DNA label (for qPCR read-out); purchased DiscoveRx (KINOMEscan scanMAX service)

SRPK3 = target: T11, SRPK3 (Homo sapiens, UniProt Q9UPE1)
T11 construct: purchased KINOMEscan (DiscoveRx)

MAP3K3 = MAP3K3 (Homo sapiens, UniProt Q99759)
CSNK2A1 = target: T12, CSNK2A1 (Homo sapiens, UniProt P68400)
T12 construct: DNA label; purchased DiscoveRx (KINOMEscan scanMAX panel)

NEK2 = target: T13, NEK2 (Homo sapiens, UniProt P51955)
T13 construct: DNA label (qPCR read-out); purchased KINOMEscan (ScanMAX panel service)

ZAP70 = ZAP70 (Homo sapiens, UniProt P43403)
PFCDPK1(P.falciparum) = target: T14, PFCDPK1(P.falciparum) (Plasmodium falciparum, UniProt P62344)
T14 construct: DNA label (for qPCR read-out); purchased DiscoveRx (KINOMEscan scanMAX service)
Description: (§1) Nat. Biotechnol. 23, 329-336 (2005).
(§2) Percent Control (% Ctrl).

PFPK5(P.falciparum) = target: T15, PFPK5(P.falciparum) (Plasmodium falciparum, UniProt P61075)
T15 construct: DNA label (for qPCR read-out); purchased DiscoveRx (KINOMEscan scanMAX service)
Description: as §1, §2

PRP4 = target: T16, PRP4 (Homo sapiens, UniProt Q13523)
T16 construct: purchased DiscoveRx (KINOMEscan scanMAX panel)
Description: as §1, §2

CDC2L5 = target: T17, CDC2L5 (Homo sapiens, UniProt Q14004)
T17 construct: purchased DiscoverX (KINOMEscan service)
Description: as §1, §2

FLT3(ITD, F691L) = tested on: FLT3(ITD, F691L)
Description: as §1, §2

FLT3(ITD, D835V) = tested on: FLT3(ITD, D835V)
Description: as §1, §2

FLT3 (ITD) = tested on: FLT3 (ITD)
Description: as §1, §2

MLK3 = target: T18, MLK3 (Homo sapiens, UniProt Q16584)
T18 construct: DNA label (qPCR read-out); purchased KINOMEscan scanMAX panel (DiscoveRx)

BUB1 = target: T19, BUB1 (Homo sapiens, UniProt O43683)
T19 construct: DNA label (for qPCR read-out); purchased KINOMEscan scanMAX panel (DiscoveRx)

EGFR(L858R,T790M) = target: T20, EGFR(L858R,T790M) (Homo sapiens, UniProt P00533, L858R/T790M)
T20 construct: purchased DiscoveRx (KINOMEscan scanMAX panel)

MEK5 = target: T21, MEK5 (Homo sapiens, UniProt Q13163)
T21 construct: purchased DiscoveRx (KINOMEscan scanMAX panel, service)

NEK7 = target: T22, NEK7 (Homo sapiens, UniProt Q8TDX7)
T22 construct: DNA label (qPCR read-out); purchased KINOMEscan (ScanMAX panel service)

MEK1 = target: T23, MEK1 (Homo sapiens, UniProt Q02750)
T23 construct: purchased DiscoveRx (KINOMEscan scanMAX panel, service)

GSK3B = target: T24, GSK3B (Homo sapiens, UniProt P49841)
T24 construct: DNA label (for qPCR read-out); purchased DiscoveRx (KINOMEscan scanMAX panel, contract assay)

EGFR(T790M) = target: T25, EGFR(T790M) (Homo sapiens, UniProt P00533, T790M)
T25 construct: purchased DiscoveRx (KINOMEscan scanMAX panel)

AMPK-alpha2 = target: T26, AMPK-alpha2 (Homo sapiens, UniProt P54646)
T26 construct: DNA label (qPCR read-out); purchased KINOMEscan scanMAX panel (DiscoveRx)

GCN2(Kin.Dom.2, S808G) = target: T27, GCN2(Kin.Dom.2, S808G) (Homo sapiens, UniProt Q9P2K8, S808G)
T27 construct: GCN2(Kin.Dom.2, S808G); purchased KINOMEscan (DiscoveRx)

PLK3 = target: T28, PLK3 (Homo sapiens, UniProt Q9H4B4)
T28 construct: purchased DiscoveRx (KINOMEscan scanMAX panel)

[1] = target: T29, RPS6KA5(Kin.Dom.2-C-terminal) (Homo sapiens, UniProt O75582)
T29 construct: RPS6KA5(Kin.Dom.2); purchased DiscoveRx (KINOMEscan scanMAX panel)

ERK2 = target: T30, ERK2 (Homo sapiens, UniProt P28482)
T30 construct: DNA label (qPCR read-out); purchased DiscoveRx (KINOMEscan ScanMAX panel)

T11 sequence (Q9UPE1 whole entry): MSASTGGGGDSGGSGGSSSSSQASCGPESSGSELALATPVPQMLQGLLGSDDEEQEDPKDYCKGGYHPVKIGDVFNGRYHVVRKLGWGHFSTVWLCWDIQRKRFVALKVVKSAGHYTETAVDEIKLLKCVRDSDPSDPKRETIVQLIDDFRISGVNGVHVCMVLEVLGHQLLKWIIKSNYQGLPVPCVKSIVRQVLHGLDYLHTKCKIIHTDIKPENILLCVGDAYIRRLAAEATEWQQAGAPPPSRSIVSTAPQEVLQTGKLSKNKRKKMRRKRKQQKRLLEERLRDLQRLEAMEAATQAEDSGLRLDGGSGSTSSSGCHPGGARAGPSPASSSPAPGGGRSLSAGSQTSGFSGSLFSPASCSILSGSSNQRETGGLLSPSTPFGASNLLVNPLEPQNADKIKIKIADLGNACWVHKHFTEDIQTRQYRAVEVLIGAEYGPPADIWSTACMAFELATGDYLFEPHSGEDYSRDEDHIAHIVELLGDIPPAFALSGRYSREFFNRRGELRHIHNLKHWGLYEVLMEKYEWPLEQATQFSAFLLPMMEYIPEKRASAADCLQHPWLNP
T16 sequence (Q13523 whole entry): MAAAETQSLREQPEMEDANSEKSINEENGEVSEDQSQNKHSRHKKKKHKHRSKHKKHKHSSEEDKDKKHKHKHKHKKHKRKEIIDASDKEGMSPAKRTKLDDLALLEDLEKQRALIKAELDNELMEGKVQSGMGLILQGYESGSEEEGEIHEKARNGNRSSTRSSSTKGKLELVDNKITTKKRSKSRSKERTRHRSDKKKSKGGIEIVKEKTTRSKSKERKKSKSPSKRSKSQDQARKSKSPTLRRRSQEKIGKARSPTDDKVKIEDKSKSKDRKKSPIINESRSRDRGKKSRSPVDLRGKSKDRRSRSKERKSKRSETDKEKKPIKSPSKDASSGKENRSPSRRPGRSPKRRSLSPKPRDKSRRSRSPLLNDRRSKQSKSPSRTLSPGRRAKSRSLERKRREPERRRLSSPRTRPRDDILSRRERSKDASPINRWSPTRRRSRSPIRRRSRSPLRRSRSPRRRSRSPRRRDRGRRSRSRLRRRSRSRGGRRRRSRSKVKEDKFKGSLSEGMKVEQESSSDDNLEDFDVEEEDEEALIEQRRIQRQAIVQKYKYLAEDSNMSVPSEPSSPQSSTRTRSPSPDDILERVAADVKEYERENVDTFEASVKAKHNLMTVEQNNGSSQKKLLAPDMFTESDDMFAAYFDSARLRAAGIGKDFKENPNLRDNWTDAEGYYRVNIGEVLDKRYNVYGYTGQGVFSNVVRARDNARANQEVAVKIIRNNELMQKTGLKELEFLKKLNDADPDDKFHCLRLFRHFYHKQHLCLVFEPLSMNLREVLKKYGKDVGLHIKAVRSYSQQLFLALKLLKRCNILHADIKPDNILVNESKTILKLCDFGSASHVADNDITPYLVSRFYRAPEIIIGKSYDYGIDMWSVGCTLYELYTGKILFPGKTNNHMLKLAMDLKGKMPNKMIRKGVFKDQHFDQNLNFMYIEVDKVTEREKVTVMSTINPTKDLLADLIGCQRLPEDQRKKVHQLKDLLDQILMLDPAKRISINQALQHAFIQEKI
T27 sequence (Q9P2K8 590-1001 S808G limits assumed): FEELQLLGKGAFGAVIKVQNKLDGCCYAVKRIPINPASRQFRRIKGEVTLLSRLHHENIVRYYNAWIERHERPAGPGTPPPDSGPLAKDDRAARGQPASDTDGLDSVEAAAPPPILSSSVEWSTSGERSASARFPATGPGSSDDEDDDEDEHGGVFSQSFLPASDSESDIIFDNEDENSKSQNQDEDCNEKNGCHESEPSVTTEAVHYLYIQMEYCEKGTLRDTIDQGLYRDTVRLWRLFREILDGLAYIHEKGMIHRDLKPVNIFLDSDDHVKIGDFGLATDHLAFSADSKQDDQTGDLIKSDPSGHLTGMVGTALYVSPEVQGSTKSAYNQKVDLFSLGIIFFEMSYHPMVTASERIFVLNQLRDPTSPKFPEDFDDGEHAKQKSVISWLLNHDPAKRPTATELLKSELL
T24 sequence (P49841 whole entry): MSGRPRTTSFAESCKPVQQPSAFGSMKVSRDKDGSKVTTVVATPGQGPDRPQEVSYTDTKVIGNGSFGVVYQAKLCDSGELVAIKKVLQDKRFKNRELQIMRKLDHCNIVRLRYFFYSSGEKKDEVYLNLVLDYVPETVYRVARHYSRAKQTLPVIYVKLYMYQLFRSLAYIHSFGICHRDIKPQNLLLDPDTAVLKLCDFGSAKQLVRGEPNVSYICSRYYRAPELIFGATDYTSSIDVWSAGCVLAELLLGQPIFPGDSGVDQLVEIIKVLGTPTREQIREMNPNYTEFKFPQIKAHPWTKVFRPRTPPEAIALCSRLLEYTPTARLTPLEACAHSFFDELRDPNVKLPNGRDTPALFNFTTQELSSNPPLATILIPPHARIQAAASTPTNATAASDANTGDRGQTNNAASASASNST
T13 sequence (P51955 whole entry): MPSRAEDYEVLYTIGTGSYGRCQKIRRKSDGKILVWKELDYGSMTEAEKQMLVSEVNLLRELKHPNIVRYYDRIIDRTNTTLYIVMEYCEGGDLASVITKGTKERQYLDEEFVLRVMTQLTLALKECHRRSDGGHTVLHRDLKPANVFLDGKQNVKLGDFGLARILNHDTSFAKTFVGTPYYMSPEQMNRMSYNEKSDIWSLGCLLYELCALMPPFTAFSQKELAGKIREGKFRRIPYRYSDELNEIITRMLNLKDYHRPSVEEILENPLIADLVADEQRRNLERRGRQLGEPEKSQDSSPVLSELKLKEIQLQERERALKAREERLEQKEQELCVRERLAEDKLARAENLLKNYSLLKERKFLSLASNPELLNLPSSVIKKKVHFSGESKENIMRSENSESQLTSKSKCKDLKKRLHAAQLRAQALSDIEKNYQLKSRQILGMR
T7 sequence (P06241 whole entry): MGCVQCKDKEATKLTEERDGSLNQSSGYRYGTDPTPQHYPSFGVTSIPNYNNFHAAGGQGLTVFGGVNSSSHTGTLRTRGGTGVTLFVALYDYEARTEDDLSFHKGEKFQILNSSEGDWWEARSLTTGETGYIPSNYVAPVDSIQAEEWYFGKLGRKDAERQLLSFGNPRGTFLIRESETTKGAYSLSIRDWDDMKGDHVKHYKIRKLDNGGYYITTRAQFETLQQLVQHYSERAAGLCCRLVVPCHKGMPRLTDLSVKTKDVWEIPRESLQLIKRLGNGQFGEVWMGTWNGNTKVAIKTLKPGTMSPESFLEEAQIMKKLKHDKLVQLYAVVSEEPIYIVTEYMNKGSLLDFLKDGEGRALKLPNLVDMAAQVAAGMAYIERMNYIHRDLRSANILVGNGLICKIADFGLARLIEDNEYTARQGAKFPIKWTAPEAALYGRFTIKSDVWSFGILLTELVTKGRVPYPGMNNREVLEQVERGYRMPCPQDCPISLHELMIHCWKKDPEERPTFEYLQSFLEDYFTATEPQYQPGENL
T18 sequence (Q16584 whole entry): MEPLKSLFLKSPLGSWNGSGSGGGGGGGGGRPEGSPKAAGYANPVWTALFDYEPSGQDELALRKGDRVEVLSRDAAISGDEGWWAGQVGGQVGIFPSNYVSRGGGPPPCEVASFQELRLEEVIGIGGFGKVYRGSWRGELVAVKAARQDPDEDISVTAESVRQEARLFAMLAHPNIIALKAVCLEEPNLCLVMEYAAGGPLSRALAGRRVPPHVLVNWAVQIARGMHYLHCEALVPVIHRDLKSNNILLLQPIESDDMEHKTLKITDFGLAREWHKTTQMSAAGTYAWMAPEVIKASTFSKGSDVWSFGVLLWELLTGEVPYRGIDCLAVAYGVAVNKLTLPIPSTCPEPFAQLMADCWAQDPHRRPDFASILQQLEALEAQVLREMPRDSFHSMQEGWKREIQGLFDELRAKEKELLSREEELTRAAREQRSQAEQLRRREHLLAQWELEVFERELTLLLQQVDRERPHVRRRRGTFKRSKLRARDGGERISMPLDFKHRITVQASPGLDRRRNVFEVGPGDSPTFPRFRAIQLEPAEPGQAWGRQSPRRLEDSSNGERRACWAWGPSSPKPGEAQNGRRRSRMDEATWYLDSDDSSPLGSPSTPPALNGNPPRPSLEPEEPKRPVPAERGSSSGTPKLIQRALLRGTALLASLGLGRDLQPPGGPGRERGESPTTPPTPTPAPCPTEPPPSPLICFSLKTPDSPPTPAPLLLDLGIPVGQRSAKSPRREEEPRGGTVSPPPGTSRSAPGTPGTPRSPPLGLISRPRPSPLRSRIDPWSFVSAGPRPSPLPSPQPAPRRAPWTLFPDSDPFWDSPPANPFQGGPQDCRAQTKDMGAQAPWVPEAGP
T26 sequence (P54646 whole entry): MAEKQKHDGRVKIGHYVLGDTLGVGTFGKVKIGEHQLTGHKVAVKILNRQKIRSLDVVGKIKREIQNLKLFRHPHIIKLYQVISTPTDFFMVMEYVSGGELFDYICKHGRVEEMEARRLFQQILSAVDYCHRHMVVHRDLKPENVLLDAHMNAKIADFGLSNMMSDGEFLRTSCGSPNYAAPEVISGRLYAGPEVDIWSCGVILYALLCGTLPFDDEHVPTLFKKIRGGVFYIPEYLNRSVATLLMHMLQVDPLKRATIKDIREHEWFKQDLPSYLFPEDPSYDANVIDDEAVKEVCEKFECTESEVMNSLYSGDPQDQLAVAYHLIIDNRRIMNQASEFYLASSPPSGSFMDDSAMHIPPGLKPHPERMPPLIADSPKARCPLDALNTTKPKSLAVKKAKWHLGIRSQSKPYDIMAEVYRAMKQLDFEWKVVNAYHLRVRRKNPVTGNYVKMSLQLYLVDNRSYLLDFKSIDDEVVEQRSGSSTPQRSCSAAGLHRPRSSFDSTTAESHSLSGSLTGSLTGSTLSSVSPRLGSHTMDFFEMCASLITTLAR

Row | SMILES | % Ctrl (RET(M918T)) | % Ctrl (DAPK3) | % Ctrl (MAPKAPK2) | % Ctrl (PRKX) | % Ctrl (SYK) | % Ctrl (HIPK4) | % Ctrl (PIK3CD) | % Ctrl (FYN) | % Ctrl (PRKCQ) | % Ctrl (HPK1) | % Ctrl (PDGFRA) | % Ctrl (SRPK3) | % Ctrl (MAP3K3) | % Ctrl (CSNK2A1) | % Ctrl (NEK2) | % Ctrl (ZAP70) | % Ctrl (PFCDPK1(P.falciparum)) | % Ctrl (PFPK5(P.falciparum)) | % Ctrl (PRP4) | % Ctrl (CDC2L5) | other results
1 | CN(C)C(=O)c1ccc(N2CCCN(c3ccnc4sc(C(N)=O)c(N)c34)CC2)cc1 [15u, 3-amino-4-(4-(4-(dimethylcarbamoyl)phenyl)-1,4-diazepan-1-yl)thieno[2,3-b]pyridine-2-carboxamide] | 98 % Ctrl | 81 % Ctrl | 91 % Ctrl | 94 % Ctrl | 95 % Ctrl | 100 % Ctrl | 94 % Ctrl | 99 % Ctrl | 90 % Ctrl | 98 % Ctrl | 70 % Ctrl | 65 % Ctrl | 100 % Ctrl | 100 % Ctrl | 95 % Ctrl | 95 % Ctrl | 94 % Ctrl | 68 % Ctrl | 100 % Ctrl | 71 % Ctrl | % Ctrl (FLT3(ITD, F691L)): 95 % Ctrl; % Ctrl (FLT3(ITD, D835V)): 41 % Ctrl; % Ctrl (FLT3 (ITD)): 82 % Ctrl; % Ctrl (MLK3): 99 % Ctrl; % Ctrl (BUB1): 88 % Ctrl; % Ctrl (EGFR(L858R,T790M)): 100 % Ctrl; % Ctrl (MEK5): 86 % Ctrl; % Ctrl (NEK7): 100 % Ctrl; % Ctrl (MEK1): 93 % Ctrl; % Ctrl (GSK3B): 79 % Ctrl; % Ctrl (EGFR(T790M)): 98 % Ctrl; % Ctrl (AMPK-alpha2): 80 % Ctrl; % Ctrl (GCN2(Kin.Dom.2, S808G)): 73 % Ctrl; % Ctrl (PLK3): 86 % Ctrl; % Ctrl [1]: 95 % Ctrl; % Ctrl (ERK2): 78 % Ctrl
2 | [2H]C([2H])([2H])N(C(=O)c1ccc(N2CCCN(c3ccnc4sc(C(N)=O)c(N)c34)CC2)cc1)C([2H])([2H])[2H] [15u_D6, 3-amino-4-(4-(4-(bis(methyl-d3)carbamoyl)phenyl)-1,4-diazepan-1-yl)thieno[2,3-b]pyridine-2-carboxamide] | 98 % Ctrl | 83 % Ctrl | 99 % Ctrl | 95 % Ctrl | 100 % Ctrl | 100 % Ctrl | 71 % Ctrl | 97 % Ctrl | 87 % Ctrl | 100 % Ctrl | 65 % Ctrl | 96 % Ctrl | 72 % Ctrl | 59 % Ctrl | 95 % Ctrl | 87 % Ctrl | 61 % Ctrl | 67 % Ctrl | 88 % Ctrl | 80 % Ctrl | % Ctrl (FLT3(ITD, F691L)): 75 % Ctrl; % Ctrl (FLT3(ITD, D835V)): 34 % Ctrl; % Ctrl (FLT3 (ITD)): 72 % Ctrl; % Ctrl (MLK3): 100 % Ctrl; % Ctrl (BUB1): 80 % Ctrl; % Ctrl (EGFR(L858R,T790M)): 87 % Ctrl; % Ctrl (MEK5): 65 % Ctrl; % Ctrl (NEK7): 86 % Ctrl; % Ctrl (MEK1): 83 % Ctrl; % Ctrl (GSK3B): 77 % Ctrl; % Ctrl (EGFR(T790M)): 87 % Ctrl; % Ctrl (AMPK-alpha2): 95 % Ctrl; % Ctrl (GCN2(Kin.Dom.2, S808G)): 88 % Ctrl; % Ctrl (PLK3): 90 % Ctrl; % Ctrl [1]: 100 % Ctrl; % Ctrl (ERK2): 92 % Ctrl
